Assay: xn = mol fraction of the nth substance listed
Conditions: 100 kPa

CO + CCCC[n+]1ccn(C)c1.O=S(=O)([N-]S(=O)(=O)C(F)(F)F)C(F)(F)F
x1 = 1
Conditions | speed of sound [m/s] | viscosity [mPa·s]
298.15 K | 1103.3 | 0.55
303.15 K | 1086.9 | 0.51
308.15 K | 1070.6 | 0.48
313.15 K | 1054.5 | 0.45
318.15 K | 1038.5 | 0.42
323.15 K | 1022.5 | 0.41

CS(C)=O + CCCC[n+]1ccn(C)c1.O=S(=O)([N-]S(=O)(=O)C(F)(F)F)C(F)(F)F
Conditions | speed of sound [m/s] | viscosity [mPa·s]
298.15 K, x1 = 0.0951 | 1232.7 | 40.36
298.15 K, x1 = 0.2074 | 1239.8 | 33.72
298.15 K, x1 = 0.2885 | 1246 | 28.98
298.15 K, x1 = 0.4003 | 1257.9 | 22.18
298.15 K, x1 = 0.5026 | 1269.8 | 17.18
298.15 K, x1 = 0.7066 | 1299.3 | 8.91
298.15 K, x1 = 0.8039 | 1329 | 5.97
298.15 K, x1 = 0.9012 | 1384.8 | 3.51
298.15 K, x1 = 1 | 1490.5 | 2.03
303.15 K, x1 = 0.0951 | 1221.2 | 32.94
303.15 K, x1 = 0.2074 | 1228.1 | 27.62
303.15 K, x1 = 0.4003 | 1245.8 | 18.3
303.15 K, x1 = 0.5903 | 1267.6 | 11.04
303.15 K, x1 = 0.7066 | 1286.2 | 8.01
303.15 K, x1 = 0.8039 | 1315.2 | 5.17
303.15 K, x1 = 0.9012 | 1369.9 | 3.15
303.15 K, x1 = 1 | 1473.6 | 1.84
308.15 K, x1 = 0.0951 | 1209.8 | 26.98
308.15 K, x1 = 0.2074 | 1216.8 | 22.9
308.15 K, x1 = 0.2885 | 1222.7 | 19.59
308.15 K, x1 = 0.4003 | 1233.9 | 15.42
308.15 K, x1 = 0.5026 | 1245.1 | 11.71
308.15 K, x1 = 0.7066 | 1273.2 | 6.73
308.15 K, x1 = 0.8039 | 1301.4 | 4.62
308.15 K, x1 = 0.9012 | 1355 | 2.84
313.15 K, x1 = 0.2885 | 1211.1 | 17.04
313.15 K, x1 = 0.4003 | 1221.8 | 13.35
313.15 K, x1 = 0.5026 | 1232.9 | 10.62
313.15 K, x1 = 0.7066 | 1260.2 | 5.96
313.15 K, x1 = 0.8039 | 1287.7 | 4.17
313.15 K, x1 = 0.9012 | 1340.2 | 2.57
318.15 K, x1 = 0.0951 | 1187.5 | 19.53
318.15 K, x1 = 0.2074 | 1194.2 | 16.67
318.15 K, x1 = 0.2885 | 1199.7 | 14.57
318.15 K, x1 = 0.4003 | 1210.1 | 11.47
318.15 K, x1 = 0.5026 | 1220.8 | 8.84
318.15 K, x1 = 0.5903 | 1229.8 | 7.4
318.15 K, x1 = 0.7066 | 1247.2 | 5.63
318.15 K, x1 = 0.8039 | 1274.4 | 3.71
318.15 K, x1 = 0.9012 | 1325.4 | 2.33
318.15 K, x1 = 1 | 1423.3 | 1.41
323.15 K, x1 = 0.0951 | 1176.3 | 16.81
323.15 K, x1 = 0.2074 | 1182.9 | 14.37
323.15 K, x1 = 0.2885 | 1188.1 | 12.56
323.15 K, x1 = 0.4003 | 1198.2 | 9.96
323.15 K, x1 = 0.5026 | 1208.5 | 7.69
323.15 K, x1 = 0.5903 | 1217.3 | 6.39
323.15 K, x1 = 0.7066 | 1233.9 | 5.01
323.15 K, x1 = 0.8039 | 1260.4 | 3.32
323.15 K, x1 = 1 | 1406.7 | 1.3

CCCC[n+]1ccn(C)c1.O=S(=O)([N-]S(=O)(=O)C(F)(F)F)C(F)(F)F + CO
Conditions | speed of sound [m/s] | viscosity [mPa·s]
298.15 K, x2 = 0 | 1227.5 | 49.6
298.15 K, x2 = 0.2068 | 1218.3 | 34.37
298.15 K, x2 = 0.295 | 1213.6 | 28.65
298.15 K, x2 = 0.4004 | 1208.6 | 22.3
298.15 K, x2 = 0.4923 | 1202 | 17.55
298.15 K, x2 = 0.5956 | 1191.3 | 12.55
298.15 K, x2 = 0.7947 | 1159.2 | 5.11
298.15 K, x2 = 0.8978 | 1134.4 | 1.7
303.15 K, x2 = 0.2068 | 1206.7 | 28.28
303.15 K, x2 = 0.295 | 1202.3 | 23.6
303.15 K, x2 = 0.4923 | 1190.3 | 14.6
303.15 K, x2 = 0.5956 | 1180 | 10.52
303.15 K, x2 = 0.7056 | 1164.1 | 6.79
303.15 K, x2 = 0.7947 | 1146.7 | 4.38
303.15 K, x2 = 0.8978 | 1121.2 | 1.55
308.15 K, x2 = 0 | 1205.5 | 33.25
308.15 K, x2 = 0.0986 | 1201.6 | 28.87
308.15 K, x2 = 0.2068 | 1196 | 23.61
308.15 K, x2 = 0.295 | 1192.5 | 19.98
308.15 K, x2 = 0.4004 | 1186.7 | 15.74
308.15 K, x2 = 0.4923 | 1179.1 | 12.56
308.15 K, x2 = 0.5956 | 1169.2 | 9.2
308.15 K, x2 = 0.7056 | 1152.6 | 5.97
308.15 K, x2 = 0.7947 | 1134.5 | 3.97
308.15 K, x2 = 0.8978 | 1108.1 | 1.42
313.15 K, x2 = 0 | 1193.5 | 28
313.15 K, x2 = 0.0986 | 1190.8 | 24.53
313.15 K, x2 = 0.2068 | 1184.4 | 20.1
313.15 K, x2 = 0.295 | 1180.8 | 17.14
313.15 K, x2 = 0.4004 | 1175.5 | 13.55
313.15 K, x2 = 0.4923 | 1168 | 10.82
313.15 K, x2 = 0.5956 | 1158.3 | 8.03
313.15 K, x2 = 0.7056 | 1141.2 | 5.28
313.15 K, x2 = 0.7947 | 1122.6 | 3.54
313.15 K, x2 = 0.8978 | 1095.2 | 1.31
318.15 K, x2 = 0 | 1183.5 | 23.75
318.15 K, x2 = 0.2068 | 1173.6 | 17.22
318.15 K, x2 = 0.4004 | 1164.9 | 11.7
318.15 K, x2 = 0.5956 | 1147.7 | 7.01
318.15 K, x2 = 0.7947 | 1110.5 | 3.13
318.15 K, x2 = 0.8978 | 1082.2 | 1.21
323.15 K, x2 = 0 | 1171.3 | 20.39
323.15 K, x2 = 0.0986 | 1169.3 | 18.1
323.15 K, x2 = 0.2068 | 1162.4 | 14.96
323.15 K, x2 = 0.295 | 1160 | 12.89
323.15 K, x2 = 0.4004 | 1154.4 | 10.31
323.15 K, x2 = 0.4923 | 1146.6 | 8.33
323.15 K, x2 = 0.5956 | 1137.2 | 6.21
323.15 K, x2 = 0.7947 | 1098.7 | 2.81

CCCC[n+]1ccn(C)c1.O=S(=O)([N-]S(=O)(=O)C(F)(F)F)C(F)(F)F + CS(C)=O
x2 = 0
Conditions | speed of sound [m/s] | viscosity [mPa·s]
298.15 K | 1227.5 | 49.6
308.15 K | 1205.5 | 33.25
313.15 K | 1193.5 | 28
323.15 K | 1171.3 | 20.39

Source: a compilation of properties of binary mixtures (doi:10.1016/j.molliq.2017.03.027)
